Laboratory results from the supplement of paper PMC10307832.

Assays:
Assay in all cases: relative viability (nuclei count vs DMSO), 5 days (fraction); higher = more cells survive
Selisistat + Foretinib = compound: C1CC(C2=C(C1)C3=C(N2)C=CC(=C3)Cl)C(=O)N [Selisistat] + COc1cc2c(Oc3ccc(NC(=O)C4(C(=O)Nc5ccc(F)cc5)CC4)cc3F)ccnc2cc1OCCCN1CCOCC1 [Foretinib] (partner 0.25 µM)
Outline: (§1)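 Lung cancer cell lines were seeded in 1536-well plates and dosed by pin tool the next day, with either a single drug or a fixed anchor-drug dose combined with five library-drug doses (not always all listed) spaced in √10 steps. Five days later, one step fixed the cells and stained their nuclei (final 0.05% Triton X-100, 1% formaldehyde, 1 ug/ml Hoechst), and nuclei were counted on 4× images. Relative viability is the nuclei count in treated wells divided by the count in vehicle wells, and each value is the median of duplicate plates.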

Serdemetan + Olaparib = compound: c1ccc2c(CCNc3ccc(Nc4ccncc4)cc3)c[nH]c2c1 [Serdemetan] + O=C(c1cc(Cc2n[nH]c(=O)c3ccccc23)ccc1F)N1CCN(C(=O)C2CC2)CC1 [Olaparib] (partner 8 µM)
Outline: as §1

Serdemetan + Dasatinib = compound: c1ccc2c(CCNc3ccc(Nc4ccncc4)cc3)c[nH]c2c1 [Serdemetan] + Cc1nc(Nc2ncc(C(=O)Nc3c(C)cccc3Cl)s2)cc(N2CCN(CCO)CC2)n1 [Dasatinib] (partner 0.075 µM)
Outline: as §1

Selisistat + Lapatinib = compound: C1CC(C2=C(C1)C3=C(N2)C=CC(=C3)Cl)C(=O)N [Selisistat] + CS(=O)(=O)CCNCc1ccc(-c2ccc3ncnc(Nc4ccc(OCc5cccc(F)c5)c(Cl)c4)c3c2)o1 [Lapatinib] (partner 2 µM)
Outline: as §1

Cell Line UMC-11 has a relative viability (Selisistat + Foretinib; first compound 0.4 µM) of 0.979, a relative viability (Selisistat + Foretinib; first compound 1.265 µM) of 0.988 and a relative viability (Selisistat + Foretinib; first compound 4 µM) of 1.08. The relative viability (Selisistat + Foretinib; first compound 12.65 µM) was 0.982, the relative viability (Selisistat + Foretinib; first compound 40 µM) was 1.02 and the relative viability (Serdemetan + Olaparib; first compound 0.04 µM) was 0.345. The relative viability (Serdemetan + Olaparib; first compound 0.1265 µM) was 0.332, the relative viability (Serdemetan + Olaparib; first compound 0.4 µM) was 0.319 and the relative viability (Serdemetan + Olaparib; first compound 1.265 µM) was 0.255. The relative viability (Serdemetan + Olaparib; first compound 4 µM) was 0.593, the relative viability (Serdemetan + Dasatinib; first compound 0.04 µM) was 0.45 and the relative viability (Serdemetan + Dasatinib; first compound 0.1265 µM) was 0.437. For the same cell line, the relative viability (Serdemetan + Dasatinib; first compound 4 µM) was 0.351, the relative viability (Selisistat + Lapatinib; first compound 0.4 µM) was 0.921 and the relative viability (Selisistat + Lapatinib; first compound 1.265 µM) was 0.999. For the same cell line, the relative viability (Selisistat + Lapatinib; first compound 4 µM) was 0.893, the relative viability (Selisistat + Lapatinib; first compound 12.65 µM) was 0.94 and the relative viability (Selisistat + Lapatinib; first compound 40 µM) was 1.06.
